“And” between values parts separate entries of the source, which are not always exact repeats. Equal values may be shown once. Where a name gives a salt, the structure may show the parent alone. Read-outs that look alike come from different tables or passages of the source.
Legend:
[1] = target: TbAQP2/HAPT1 (Trypanosoma brucei brucei, UniProt Q6ZXT3); assay: cell-based; assay type: cell-based
[2] = test system: s427WT bloodstream forms; assay type: cell-based, Trypanosoma brucei brucei
[3] = Gibbs free energy of binding to HAPT
[4] = NI/NE with the concentration tested, read-out: HAPT Ki, AVG

TbAQP2/HAPT1, sequence (Q6ZXT3 whole entry): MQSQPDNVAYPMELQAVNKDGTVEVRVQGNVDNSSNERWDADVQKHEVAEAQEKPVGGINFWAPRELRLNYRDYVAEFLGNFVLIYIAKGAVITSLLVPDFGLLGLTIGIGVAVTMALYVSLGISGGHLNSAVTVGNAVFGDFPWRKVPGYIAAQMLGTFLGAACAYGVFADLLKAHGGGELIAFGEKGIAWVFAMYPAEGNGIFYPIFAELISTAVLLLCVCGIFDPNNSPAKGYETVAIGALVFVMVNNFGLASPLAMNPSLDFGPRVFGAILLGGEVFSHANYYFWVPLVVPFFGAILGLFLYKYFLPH

| Structure (SMILES) | ΔG0 [1] [kcal/mol] | δ(ΔG^0) PMD [1] [kcal/mol] | Ki ([1]; Ki) | also measured |
| --- | --- | --- | --- | --- |
| N=C(N)c1ccc(O)cc1 [4-hydroxybenzamidine] | -3.47 | 6.72 | 2900 µM | Ki ([1]; HAPT Ki, AVG): 2890 µM |
| N=C(N)c1ccc(OCCCCOc2ccc(C(=N)N)cc2)cc1 [Butamidine, 4,4’-(Butane-l ,4-diylbis(oxy))dibenzimiamide dihydrochloride dihydrate] | -7.39 | 2.8 | 3.87 ± 1.38 µM |  |
| Cl.N=C(N)c1ccc(OCCCCOc2ccccc2)cc1.O [CHI/1/69/1, 4-(4-Phenoxybutoxy)benzimidamide hydrochloride hydrate] | -7.7 | 2.49 | 2.33 µM and 2.3 µM |  |
| CON1CCN=C1Nc1ccc(CCc2ccc(NC3=NCCN3OC)cc2)cc1 [CRMI8] | -5.83 | 4.33 | 52.8 ± 12.7 µM |  |
| N=C(N)c1ccc(OCCCOc2ccc(C(=N)N)cc2)cc1 [Chainlength 3] |  |  |  | Ki ([1]; Ki value, Mean): 7.2 µM |
| N=C(N)c1ccc(OCCCCOc2ccc(C(=N)N)cc2)cc1 [Chainlength 4] |  |  |  | Ki ([1]; Ki value, Mean): 3.91 µM |
| N=C(N)c1ccc(OCCCCCOc2ccc(C(=N)N)cc2)cc1 [Chainlength 5] |  |  |  | Ki ([1]; Ki value, Mean): 0.0364 µM |
| N=C(N)c1ccc(OCCCCCCOc2ccc(C(=N)N)cc2)cc1 [Chainlength 6] |  |  |  | Ki ([1]; Ki value, Mean): 0.059 µM |
| N=C(N)c1ccc(OCCCCCCCOc2ccc(C(=N)N)cc2)cc1 [Chainlength 7] |  |  |  | Ki ([1]; Ki value, Mean): 0.125 µM |
| N=C(N)c1ccc(OCCCCCCCCOc2ccc(C(=N)N)cc2)cc1 [Chainlength 8] |  |  |  | Ki ([1]; Ki value, Mean): 2.2 µM |
| N=C(N)c1ccc(-c2cc3ccc(C(=N)N)cc3[nH]2)cc1 [DAPI] | -6.24 |  |  | δ(ΔG0) [1]: 3.92 kcal/mol; Ki ([1]; read-out: HAPT Ki, AVG): 26.4 µM |
| Cn1c(-c2ccc(C(=N)N)cc2)ccc1-c1ccc(C(=N)N)cc1 [DB320] | -5.66 | 4.52 | 71.3 ± 12.1 µM |  |
| COc1ccc(-c2ccc(-c3ccc(C(=N)N)cc3)o2)cc1 [DB607, 4-(5-(4-methoxyphenyl)furan-2-yl) benzimidamide hydrochloride] | -6.48 | 3.7 | 18.1 ± 1.9 µM |  |
| N=C(N)Nc1ccc(-c2ccc(-c3ccc(NC(=N)N)cc3)s2)cc1 [DB686] | -8.91 | 1.24 | 0.29 ± 0.11 µM |  |
| N=C(N)c1ccc(-c2ccc(-c3ccc(C(=N)N)cn3)o2)cc1 [DB820] |  |  |  | ΔG0 [1, 3]: -5.95 kcal/mol; Ki [1, 4]: 43.4 µM; δ(ΔG0) ([1]; relative to pentamidine (0)): 4.23 kcal/mol |
| N=C(N)c1ccc(-c2ccc(-c3ccc(C(=N)N)cn3)o2)nc1 [DB829] | -6 | 4.16 | 39.9 ± 8 µM |  |
| N=C(N)c1ccc(-c2ccc(-c3ccc(-c4ccc(C(=N)N)cc4)o3)o2)cc1 [DB914] | -9.73 | 0.43 | 0.073 ± 0.013 µM |  |
| Cn1c(-c2ccc(-c3ccc(C(=N)N)cc3)o2)nc2ccccc21 [DB960, 4-(5-(1-methyl-1H-benzo[d]imidazol-2-yl)furan-2-yl) benzimidamide dihydrochloride] | -6.52 | 3.66 | 16.6 ± 3.5 µM |  |
| N=C(N)c1ccc(-c2ccc(-c3ccc(C(=N)N)nc3)o2)cn1 [DB994] | -5.16 | 5.02 | 167 ± 20 µM |  |
| N=C(N)CCc1ccc(-c2ccc(-c3ccc(CCC(=N)N)cc3)o2)cc1 [DB1061, 3,3'-(furan-2,5-diylbis (4,1-phenylene)) dipropanimidamide dihydrochloride] | -6.12 | 4.04 | 32.3 ± 6 µM |  |
| Cl.Cl.c1cc(-c2ccc(-c3ccc(CCC4=NCCN4)cc3)o2)ccc1CCC1=NCCN1 [DB1062, 2,5-bis(4-(2-(4,5-dihydro-1H-imidazol-2-yl)ethyl)phenyl) furan dihydrochloride] | -5.76 | 4.4 | 59.6 ± 11.2 µM |  |
| N=C(N)CCc1ccc(-c2ccc(-c3ccc(CCC(=N)N)cc3)s2)cc1 [DB1063, 3,3'-(thiophene-2,5-diylbis(4,1-phenylene)) dipropanimidamide dihydrochloride] | -8.72 | 1.43 | 0.4 ± 0.1 µM |  |

| Structure (SMILES) | ΔG0 [1] [kcal/mol] | δ(ΔG^0) PMD [1] [kcal/mol] | Ki ([1]; Ki) | also measured |
| --- | --- | --- | --- | --- |
| N=C(N)c1ccc(-c2csc(-c3ccc(C(=N)N)cc3)c2)cc1 [DB1077, 4,4'-(thiophene-2,4-diyl) dibenzimidamide dihydrochloride] | -6.62 | 3.54 | 13.8 ± 3.1 µM |  |
| N=C(N)c1ccc(OCCOCCOc2ccc(C(=N)N)cc2)cc1 [DB1699] | -6.52 | 3.66 | 16.6 ± 2.1 µM |  |
| N=C(N)c1ccc(-c2csc(-c3ccc(C(=N)N)cc3)n2)cc1 [ER1004, 4,4'-(thiazole-2,4-diyl)dibenzimidamide] | -5.69 | 4.49 | 68.7 ± 16 µM |  |
| Cl.Cl.N=C(N)c1ccc(OCCOc2ccc(C(=N)N)cc2)cc1.O.O [Ethamidine, 4,4'-(ethane-1,2-diylbis(oxy))dibenzimidamide dihydrochloride dihydrate] |  | >4.71 | > 100 µM | δ(ΔG0) [1]: >4.71 kcal/mol |
| c1cc(NC2=NCCN2)ccc1CCc1ccc(NC2=NCCN2)cc1 [FR39] | -5.98 | 4.21 | 41.7 ± 15.2 µM |  |
| N=C(N)c1ccc(OCCCCCCCOc2ccc(C(=N)N)cc2)cc1 [Heptamidine] | -9.42 | 0.741 | 0.123 ± 0.01 µM |  |
| N=C(N)c1ccc(OCCCCCCOc2ccc(C(=N)N)cc2)cc1 [Hexamidine] | -9.87 | 0.311 | 0.058 ± 0.011 µM |  |
| N=C(N)c1cccc(OCCCCCOc2cccc(C(=N)N)c2)c1 [Meta-pentamidine RT40] | -5.71 |  |  | δ(ΔG0) [1]: 4.45 kcal/mol; Ki ([1]; HAPT Ki, AVG): 64.2 µM |
| N=C(N)c1ccc(OCCCCCCCCOc2ccc(C(=N)N)cc2)cc1 [Octamidine] | -7.72 | 2.44 | 2.16 ± 0.48 µM |  |
| O=C(CCc1ccc(O)cc1)c1c(O)cc(O)cc1O [Phloretin] | -7.84 |  | 1.76 µM | δ(ΔG0) [1]: 2.32 kcal/mol |
| Cl.Cl.N=C(N)c1ccc(OCCCOc2ccc(C(=N)N)cc2)cc1.O.O [Propamidine, 4,4’-(propane-1,3-diylbis(oxy))dibenzimidamide dihydrochloride dihydrate] | -7.07 | 3.11 | 6.63 ± 1.4 µM |  |
| N=C(N)c1ccc(OCCCOc2ccc(C(=O)O)cc2)cc1 [RT-38] |  | >4.71 | > 100 µM | HAPT Ki, AVG [1]: NI, 100 |
| N=C(N)c1ccc(OCCCCCOc2ccc(C(=N)N)cc2C(N)=O)c(C(N)=O)c1 [RT-46] |  | >4.71 | > 100 µM | Ki [1]: no affinity at all |
| N=C(N)c1ccc(S(=O)(=O)CCCCCS(=O)(=O)c2ccc(C(=N)N)cc2)cc1 [RT-49] |  | >4.95 | > 150 µM | Ki [1]: no binding affinity; δ(ΔG0) [1]: >4.95 kcal/mol |
| N=C(N)c1ccc(OCCCCCOc2ccc(C(=N)N)nc2)cn1 [RT-53] |  | >5.26 | > 250 µM | HAPT Ki, AVG [1]: NI, 250; Ki [1]: completely inactive; δ(ΔG0) [1]: >5.26 kcal/mol |
| N=C(N)c1ccc(/C=C/c2ccc(C(=N)N)cc2)cc1 [Stilbamidine] | -5.81 | 4.37 | 54.8 ± 3.2 µM | Ki ([1]; HAPT Ki, AVG): 54.8 µM |
| N=C(N)NCCCCCCCCCCN=C(N)N.O=S(=O)(O)O [Synthalin sulphate] |  |  |  | ΔG0 [1, 3]: -4.88 kcal/mol; Ki [1, 4]: 270 µM; δ(ΔG0) ([1]; relative to pentamidine (0)): 5.31 kcal/mol |
| COc1cc(/C=C/C(=O)CC(=O)/C=C/c2ccc(O)c(OC)c2)ccc1O [curcumin] | -4.64 |  |  | Ki [1]: failed to inhibit; δ(ΔG0) [1]: 5.54 kcal/mol; Ki ([1]; HAPT Ki, AVG): 398 µM |
| Cn1c([N+](=O)[O-])cnc1-c1nnc(N)s1 [megazol] |  |  |  | HAPT Ki, AVG [1]: NE, 250; Ki [1]: failed to inhibit |
| O=c1ccc2[n+]([O-])c3ccc(O)cc3oc-2c1 [resazurin] | -5.19 |  |  | δ(ΔG0) [1]: 4.97 kcal/mol; Ki ([1]; HAPT Ki, AVG): 155 µM |
| CC(C)[C@@H]1NC(=O)[C@H](C)OC(=O)[C@@H](C(C)C)NC(=O)[C@@H](C(C)C)OC(=O)[C@H](C(C)C)NC(=O)[C@H](C)OC(=O)[C@@H](C(C)C)NC(=O)[C@@H](C(C)C)OC(=O)[C@H](C(C)C)NC(=O)[C@H](C)OC(=O)[C@@H](C(C)C)NC(=O)[C@@H](C(C)C)OC1=O [valinomycin] |  |  |  | pentamidine uptake ([2]; valinomycin 0.3, AVG): 106.4 percentage of the uninhibited control; pentamidine uptake ([2]; valinomycin 0.3, single repeats): 108.9 percentage of the uninhibited control and 103.8 percentage of the uninhibited control; pentamidine uptake ([2]; valinomycin 1, AVG): 91.0 percentage of the uninhibited control; pentamidine uptake ([2]; valinomycin 1, single repeats): 97.7 percentage of the uninhibited control and 84.2 percentage of the uninhibited control; pentamidine uptake ([2]; valinomycin 10, AVG): 80.1 percentage of the uninhibited control; pentamidine uptake ([2]; valinomycin 10, single repeats): 86.7 percentage of the uninhibited control and 73.5 percentage of the uninhibited control |
